# Measured values: patent publication US9656984B2, “PI3K/AKT/mTOR inhibitors and pharmaceutical uses thereof” (UNIVERSITE DE RENNES 1, priority 2013, dated 2017)
# Experiments:
# [1] = test system: Leukemic T-cell line Jurkat; test: Cytotoxic effect by MTT assay, Jurkat; assay type: cell-based; conditions: 24 hours (FIG. 1) or 20 hours (FIG. 6)
# Experimental: (§1) Leukemic T-cell lines Jurkat and CEM were incubated for 24 hours (see FIGS. 1, 2, 3, 4 and 5) or for 20 hours (see FIG. 6) with compounds of formula (I) and with compound A, at the indicated concentrations and cell death was assessed using the viability assay MTT, which estimates the metabolic state of the cell.
# (§2) Cell viability was assessed using the 3-[4,5-dimethylthiazol-2-yl]-2,5-diphenyltetrazolium bromide (MTT) viability assay (1). In brief, cells (4×10^4 per well) were cultured for 20 h in flat-bottomed 96 well plates with various concentrations of the apoptosis inducer. Then 0.015 ml of MTT (5 mg/ml in PBS) was added to each well and incubated for 4 h at 37° C. Formazan salt precipitats were dissolved by adding 0.115 ml of isopropyl alcohol containing 1% formic acid (v/v), and the absorbance was measured at 570 nm.
# [2] = test system: PI3K/AKT activity (AKT phosphorylation); test: PI3K/AKT/mTOR pathway inhibitory activity: level of AKT phosphorylation in CEM cells over time; assay type: cell-based, human; conditions: 10 μM, FIGS. 7 and 8
# Experimental: The CEM cell was incubated with 10 μM of each mentioned compound of formula (I) for the indicated times and then cells were lysed and 100 μg of protein was loaded per line and resolved by SDS-PAGE. The levels of AKT phosphorylation (hallmark of PI3K activation) and total AKT (loading control) were analyzed by Western blot and the amount of AKT phosphorylation relative to the total amount of protein AKT was quantified by densitometric analysis, the intensity of each band was scanned and the level of AKT phosphorylation was reported to the amount of whole AKT and the percentage of phosphorylated-AKT was depicted.
# (§3) Immunoblots Excepted for immunoprecipitation experiments in which cells were lyzed with RIPA buffer, cells were lyzed for 30 min at 4° C. in Lysis buffer (25 mM HEPES pH 7.4, 1% v/v Triton X-100, 150 mM NaCl, 2 mM EGTA supplemented with a mix of protease inhibitors). Protein concentration was determined by the bicinchoninic acid method (Pierce, Rockford, Ill., USA) according to the manufacturer's protocol. Proteins were resolved by 8, 10 or 12% SDS-PAGE and transferred to a nitrocellulose membrane (GE Healthcare, Buckinghamshire, UK). The membrane was blocked 15 min with TBST (50 mM Tris, 160 mM NaCl, 0.05% v/v Tween 20, pH 7.4) containing 5% w/v dried skimmed milk (TBS™). Primary antibody was incubated overnight at 4° C. in TBS™. The membrane was intensively washed (TBST) and then the peroxydase-labeled anti-mouse IgG1 or IgG2a (CliniSciences, Nanterre, France) was added for 45 min. Proteins were visualized with the enhanced chemiluminescence substrate kit (ECL RevelBIOt®, Ozyme, Saint Quentin en Yvelines, France).
# Leukemic T-cell line CEM = test: Cytotoxic effect by MTT assay, CEM; assay type: cell-based; conditions: 24 hours, FIGS. 2 to 5
# Experimental: as §1, §2
# AKT phosphorylation = test: In cellulo IC50 of AKT phosphorylation in CEM cells (Western blot densitometry); assay type: cell-based; conditions: Homo sapiens, CCRF-CEM, 2 hours incubation, AKT phosphorylation vs whole AKT, read-out: In vivo IC50
# Experimental: CEM cells were incubated for 2 hours with the indicated concentrations of each mentioned compound of formula (I). Cells were then lysed and 100 μg of protein was loaded per line in an SDS-PAGE. Bands from AKT phosphorylation and whole AKT observed by Western blot were scanned and quantified by densitometric analysis. Based on these values, an in cellulo IC50 (half maximal inhibitory concentration) was measured for each compound of formula (I).
# as §3
# [3] = test system: MDA-MB-453 (HER2 positive) breast tumor cell line; test: Cell death by MTT assay, MDA-MB-453; assay type: cell-based, human; conditions: 24 hours, mean of two experiments
# Experimental: (§4) The ER-positive breast tumor cell lines MCF-7 and T47-D and the HER2 positive breast tumor cell lines MDA-MB-453 and BT474 (also ER-positive) were incubated with the indicated concentration of each mentioned compound of formula (I) for 24 hours and then cell death was assessed using MTT assay.
# (§5) For each cell line, the percentage of cell death (mean of four experiments for cell lines MCF-7 and T47-D, and two experiments for cell lines MDA-MB-453 and BT474) is given in view of the increasing concentration of each tested compound of the invention.
# as §2
# [4] = test system: T47-D (ER-positive) breast tumor cell line; test: Cell death by MTT assay, T47-D; assay type: cell-based, human; conditions: 24 hours, mean of four experiments
# Experimental: as §4, §5, §2
# [5] = test system: BT474 (ER-positive/HER2-positive) breast tumor cell line; test: Cell death by MTT assay, BT474; assay type: cell-based, human; conditions: 24 hours, mean of two experiments
# Experimental: as §4, §5, §2
# [6] = test system: MCF-7 (ER-positive) breast tumor cell line; test: Cell death by MTT assay, MCF-7; assay type: cell-based, human; conditions: 24 hours, mean of four experiments
# Experimental: as §4, §5, §2
# mTORC2 = mTORC2 (Homo sapiens, UniProt P42345); test: Immunoblot of AKT serine 473 phosphorylation (target of mTORC2); assay type: cell-based; design: endogenous in cells; conditions: with increasing compound concentrations, FIG. 12A
# Experimental: (§6) The inhibition of the phosphorylation level of AKT at serine 473, target of mTORC2, and 4EBP1 (also called Eukaryotic translation initiation factor 4E-binding protein 1) at threonines 37/46, which are targets of mTORC1, by compound 48 (compound 25 linked to biotin) was assessed by immunoblotting. Total AKT and 4EBP1 were added as loading controls.
# as §3
# mTORC1 = mTORC1 (Homo sapiens, UniProt P42345); test: Immunoblot of 4EBP1 threonines 37/46 phosphorylation (targets of mTORC1); assay type: cell-based; design: endogenous in cells; conditions: with increasing compound concentrations, FIG. 12A
# Experimental: as §6, §3
# mTOR = biological target: T1, mTOR (Homo sapiens, UniProt P42345); test: Biotin pull-down with streptavidin-coated beads from CEM cells, mTOR immunoblot; assay type: binding; conditions: 1 μM, CEM leukemic T cells, FIG. 12B
# T1 construct: endogenous in cells; host or cells: CEM leukemic T cells
# Experimental: Compounds 25 and 48 (compound 25 linked to biotin) (1 μM) were incubated with CEM leukemic T cells for indicated times. Then cells were lyzed in RIPA buffer and biotin was immunoprecipitated using streptavidin-coated magnetic beads. Beads were washed and the presence of mTOR was analyzed in compound 48-associated complex by Immunoblotting.
# CEM cells (10^7 cells) were pre-incubated for indicated times with 1 μM of compound 25 or compound 48, washed with PBS and lysed using RIPA buffer [50 mM Tris pH7.4, 1% NP-40, 0.5% Na-deoxycholate, 0.1% SDS, 150 mM NaCl, 2 mM EDTA, inhibitors of protease and phosphatase (Sigma)].
smiles,measurement,setting,value
CCOc1cccc2c1OC(c1ccc(F)cc1)C([N+](=O)[O-])=C2 (stereo not shown) [A],percentage of cell death (cytotoxic effect),[1],lower percentage of cell death
same,inhibitory activity on PI3K/AKT (level of AKT phosphorylation),[2],very weak inhibitory activity
same,percentage of cell death (cytotoxic effect),Leukemic T-cell line CEM,lower percentage of cell death
"O=c1cc(N2CCOCC2)oc2c(-c3ccccc3)cccc12 [LY294002, reference compound]",IC50,AKT phosphorylation,> 10 µM
same,percentage of cell death,"[3]; MDA-MB-453, 0.390625 μM",0%
same,percentage of cell death,"[3]; MDA-MB-453, 0.78125 μM",0%
same,percentage of cell death,"[3]; MDA-MB-453, 1.5625 μM",0%
same,percentage of cell death,"[3]; MDA-MB-453, 3.125 μM",0%
same,percentage of cell death,"[3]; MDA-MB-453, 6.25 μM",17.45%
same,percentage of cell death,"[3]; MDA-MB-453, 12.5 μM",53.74%
same,percentage of cell death,"[3]; MDA-MB-453, 25 μM",76.61%
same,percentage of cell death,"[3]; MDA-MB-453, 50 μM",86.55%
same,percentage of cell death,[4]; 6.25 μM,32.33%
same,percentage of cell death,[4]; 12.5 μM,40.42%
same,percentage of cell death,[4]; 25 μM,50.01%
same,percentage of cell death,[4]; 50 μM,55.69%
same,percentage of cell death,"[5]; BT474, 6.25 μM",35.35%
same,percentage of cell death,"[5]; BT474, 12.5 μM",48.7%
same,percentage of cell death,"[5]; BT474, 25 μM",62.79%
same,percentage of cell death,"[5]; BT474, 50 μM",77.2%
same,percentage of cell death (cytotoxic effect),Leukemic T-cell line CEM,much lower cell death percentage
same,percentage of cell death,"[6]; MCF-7, 6.25 μM",11.53%
same,percentage of cell death,"[6]; MCF-7, 12.5 μM",11.067%
same,percentage of cell death,"[6]; MCF-7, 25 μM",13.51%
same,percentage of cell death,"[6]; MCF-7, 50 μM",18.89%
O=C(CCCCC1SC[C@@H]2NC(=O)N[C@H]12)NCCCOc1cc(Br)c2c(c1)C=C([N+](=O)[O-])C(c1ccc(Br)cc1)O2 (stereo partly shown) [Compound 48],phosphorylation of AKT at serine 473,mTORC2,decreases
same,phosphorylation of 4EBP1 at threonines 37/46,mTORC1,decreases
same,binding to mTOR,mTOR,binds to mTOR
